Literature values as cited in patent US20120141434A1, “Methods for Selecting Expanded Stem Cell Populations” (Gamida Cell Ltd., priority 2009, published 2012).

What was measured:
[1] = system: cord blood-derived progenitor cells; details: three-week treatment of cord blood cultures supplemented with early acting cytokines
[2] = system: NOD/SCID mice; details: TEPA treated cultures compared to untreated cultures

In the case of NCCNCCNCCNCCN [TEPA, tetraethylenepentamine], the “ex vivo expansion of CD34+ cells” value [1] is given as “prolonged and extensive”, the “percentages of early progenitors (CD34+CD38−, CD34+CD38−Lin-)” value [1] is given as “higher” and the “engraftment potential in NOD/SCID mice” value [2] is given as “increased”.
